Laboratory results taken from BindingDB's records for doi:10.1111/cbdd.12686 (Jamia Hamdard, 2016).

What follows are compounds tested against Xanthine dehydrogenase/oxidase (Bos taurus, UniProt P80457) (assay: Xanthine Oxidase (XO) Assay). Settings: pH 7.4.
Chain of Xanthine dehydrogenase/oxidase (P80457 whole entry): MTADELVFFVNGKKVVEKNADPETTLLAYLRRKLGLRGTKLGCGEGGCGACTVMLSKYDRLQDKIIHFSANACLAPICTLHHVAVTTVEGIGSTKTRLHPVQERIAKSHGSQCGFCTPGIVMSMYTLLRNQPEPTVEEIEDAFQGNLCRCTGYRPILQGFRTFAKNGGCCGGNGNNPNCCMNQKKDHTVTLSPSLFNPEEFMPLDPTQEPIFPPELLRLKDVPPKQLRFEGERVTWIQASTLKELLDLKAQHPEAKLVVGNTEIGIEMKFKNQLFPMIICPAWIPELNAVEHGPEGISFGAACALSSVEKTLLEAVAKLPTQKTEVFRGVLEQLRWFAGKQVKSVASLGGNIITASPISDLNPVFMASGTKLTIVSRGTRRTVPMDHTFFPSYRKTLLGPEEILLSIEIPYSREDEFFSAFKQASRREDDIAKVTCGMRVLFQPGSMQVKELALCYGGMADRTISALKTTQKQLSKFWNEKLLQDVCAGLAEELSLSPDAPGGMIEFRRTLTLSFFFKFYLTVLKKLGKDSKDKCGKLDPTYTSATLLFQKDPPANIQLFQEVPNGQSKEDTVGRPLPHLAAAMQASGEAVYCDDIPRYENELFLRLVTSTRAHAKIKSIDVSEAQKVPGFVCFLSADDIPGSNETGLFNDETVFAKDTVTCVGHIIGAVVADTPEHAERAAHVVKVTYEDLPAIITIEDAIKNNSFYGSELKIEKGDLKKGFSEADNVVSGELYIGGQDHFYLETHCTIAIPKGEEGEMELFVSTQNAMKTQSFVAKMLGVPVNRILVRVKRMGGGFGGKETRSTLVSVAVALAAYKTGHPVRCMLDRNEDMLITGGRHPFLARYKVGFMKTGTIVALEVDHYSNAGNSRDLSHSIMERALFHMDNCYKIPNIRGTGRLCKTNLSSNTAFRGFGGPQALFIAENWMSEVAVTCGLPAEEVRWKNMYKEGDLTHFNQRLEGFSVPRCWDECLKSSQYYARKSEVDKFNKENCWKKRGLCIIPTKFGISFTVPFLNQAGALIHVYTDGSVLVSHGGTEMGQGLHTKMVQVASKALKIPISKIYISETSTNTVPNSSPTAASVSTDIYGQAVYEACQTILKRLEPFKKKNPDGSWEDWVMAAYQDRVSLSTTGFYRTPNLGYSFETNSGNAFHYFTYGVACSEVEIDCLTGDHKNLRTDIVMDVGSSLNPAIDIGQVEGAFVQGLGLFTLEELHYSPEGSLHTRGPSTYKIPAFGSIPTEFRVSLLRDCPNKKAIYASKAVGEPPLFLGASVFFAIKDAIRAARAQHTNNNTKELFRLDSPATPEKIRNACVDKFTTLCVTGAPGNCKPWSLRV

IC50 [µM] | SMILES
98.1 | Cc1nc(NCc2ccccc2)sc1C(=O)O [2-(Benzylamino)-4-methyl-1,3-thiazole-5-carboxylic acid (5a)]
8.1 | Cc1nc(NCc2ccc(Cl)cc2Cl)sc1C(=O)O [2-{[(2,4-dichlorophenyl)methyl]amino}-4-methyl-1,3-thiazole-5-carboxylic acid (5l)]
> 100 | Cc1nc(NCc2ccccc2Br)sc1C(=O)O [2-{[(2-bromophenyl)methyl]amino}-4-methyl-1,3-thiazole-5-carboxylic acid (5i)]
9.9 | Cc1nc(NCc2ccccc2Cl)sc1C(=O)O [2-{[(2-chlorophenyl)methyl]amino}-4-methyl-1,3-thiazole-5-carboxylic acid (5j)]
> 100 | Cc1nc(NCc2ccccc2O)sc1C(=O)O [2-{[(2-hydroxyphenyl)methyl]amino}-4-methyl-1,3-thiazole-5-carboxylic acid (5m)]
14.7 | COc1ccccc1CNc1nc(C)c(C(=O)O)s1 [2-{[(2-methoxyphenyl)methyl]amino}-4-methyl-1,3-thiazole-5-carboxylic acid (5n)]
60.2 | Cc1nc(NCc2ccc(O)c(O)c2)sc1C(=O)O [2-{[(3,4-dihydroxyphenyl)methyl]amino}-4-methyl-1,3-thiazole-5-carboxylic acid (5p)]
43.2 | Cc1nc(NCc2ccc(Br)cc2)sc1C(=O)O [2-{[(4-bromophenyl)methyl]amino}-4-methyl-1,3-thiazole-5-carboxylic acid (5d)]
> 100 | Cc1nc(NCc2ccc(Cl)cc2)sc1C(=O)O [2-{[(4-chlorophenyl)methyl]amino}-4-methyl-1,3-thiazole-5-carboxylic acid (5b)]
30.3 | Cc1nc(NCc2ccc(F)cc2)sc1C(=O)O [2-{[(4-fluorophenyl)methyl]amino}-4-methyl-1,3-thiazole-5-carboxylic acid (5c)]
21.5 | Cc1nc(NCc2ccc(O)cc2)sc1C(=O)O [2-{[(4-hydroxyphenyl)methyl]amino}-4-methyl-1,3-thiazole-5-carboxylic acid (5f)]
> 100 | COc1ccc(CNc2nc(C)c(C(=O)O)s2)cc1 [2-{[(4-methoxyphenyl)methyl]amino}-4-methyl-1,3-thiazole-5-carboxylic acid (5g)]
3.6 | Cc1ccccc1CNc1nc(C)c(C(=O)O)s1 [4-methyl-2-{[(2-methylphenyl)methyl]amino}-1,3-thiazole-5-carboxylic acid (5k)]
> 100 | Cc1ccc(CNc2nc(C)c(C(=O)O)s2)cc1 [4-methyl-2-{[(4-methylphenyl)methyl]amino}-1,3-thiazole-5-carboxylic acid (5e)]
